Results on 1 compound are retold here after paper PMC5040747, “Preparation and Evaluation of a Novel Class of Amphiphilic Amines as Antitumor Agents and Nanocarriers for Bioactive Molecules” (Pharmaceutical Research, 2016).

As usually defined, the IC50 is the concentration that inhibits the measured activity by half.

Molecules are shown by their SMILES. Read-outs that look alike come from different tables or passages of the source.

For series [1], the system named is 143.98.2. The experiment in a line: MTT cell proliferation assay, 143.98.2. Format: cell-based. Conditions: Homo sapiens, 143.98.2, Osteosarcoma, read-out: Cell killing activity IC50. On the procedure:
(§1) Cells were plated in 96-well tissue culture plates at a density of 1 × 10^3 cells/well, allowed to attach 24 h, and then left untreated or treated with growth medium containing different concentrations of the tested RCn compounds previously dissolved in PBS. After different time periods the cell vitality was determined by MTT assay according to the manufacture’s instruction (Promega). Results are reported as the micromolar concentration of RCn reducing cell survival to 50% (IC50).

Series [2] has as its system SK-N-AS. Kind of series: MTT cell proliferation assay, SK-N-AS. Format: cell-based. The settings on record: Homo sapiens, Neuroblastoma, read-out: Cell killing activity IC50. On the procedure:
as §1
Background: Formazan colour is commonly taken as a measure of viable cells.

Series [3] has as its system S462TY. The experiment in a line: MTT cell proliferation assay, S462TY. Format: cell-based. The settings on record: Homo sapiens, Malignant Peripheral Nerve Sheath Tumor, read-out: Cell killing activity IC50. On the procedure:
as §1

Series [4] relates to Rh41. The experiment in a line: MTT cell proliferation assay, Rh41. The settings on record: Homo sapiens, Rh41, Rhabdomyosarcoma, read-out: Cell killing activity IC50. Format: cell-based. On the procedure:
as §1

The subject of series [5] is A549. Kind of series: MTT cell proliferation assay, A549. It counts as cell-based. The settings on record: Homo sapiens, A549, adult tumor cell line, read-out: Cell killing activity IC50. On the procedure:
as §1

The subject of series [6] is Human Gingival Fibroblasts. The experiment in a line: MTT cell proliferation assay, normal fibroblasts. Format: cell-based. Conditions: Fibroblast, normal cells, read-out: Cell killing activity IC50. The method, then:
as §1

In series [7] the test system is HUVEC. Kind of series: MTT cell proliferation assay, HUVEC. It counts as cell-based. The settings on record: Homo sapiens, normal cells, read-out: Cell killing activity IC50. On the procedure:
as §1

Series [8] deals with pediatric tumor cell lines. Kind of series: MTT cell killing, pediatric tumor cell lines (summary). Format: cell-based. Conditions: Table I. On the procedure:
as §1

Series [9] deals with adult tumor cell lines (A549, MDA-MB-231, WiDr). The experiment in a line: MTT cell killing, adult tumor cell lines (summary). It counts as cell-based. Conditions: Homo sapiens, summary of Table II. The method, then:
as §1

Series [10] deals with human keratinocytes, human fibroblasts and HUVEC. The experiment in a line: MTT cell killing, normal versus tumor cells (summary). It counts as cell-based. On the procedure:
as §1

For series [11], the system named is SH-SY5Y, A673 and 143.98.2 cells. Kind of series: Annexin V-FITC/7AAD flow cytometry (apoptosis). It counts as cell-based, human. The settings on record: 5 μM RC16, 24 h, all cell lines. The method, then: SH-SY5Y, A673 and 143.98.2 cells were stained with Annexin V-FITC/7AAD according to the manufacturer’s instructions (Biosciences). Briefly, adherent cells were seeded in 6 multi wells at a concentration of 4.5 × 10^5 cells/well and after 24 h treated with 5 μM RC16 for15 h and 24 h. At the end of the treatment the cells were detached, washed twice with cold PBS and then suspended in annexin binding buffer containing 5 μl of Annexin V-FITC and 5 μl of 7AAD. The samples were gently vortexed and incubated 15 min at 25°C in the dark. Finally, 400 ul binding buffer were added to each tube and the samples were analyzed by BD LSR II (Biosciences). The analysis was performed by FlowJo software version 10.0.5.
On the technique in general: In flow cytometry, cells or beads pass a laser one at a time.

Series [12] deals with nude mice bearing CHLA-20 tumors. The experiment in a line: Biodistribution study (IVIS imaging). It counts as in vivo, mouse. Conditions: RC16 labelled with Cell-Vue Maroon. The method, then:
A pilot biodistribution study using one animal per timepoint was performed to minimize the number of experimental animals. Female athymic nude mice were subcutaneously implanted with 5.0 × 10^6 CHLA-20 cells. When tumors became palpable (approximately 5 mm in diameter), mice were treated with i.v. injections of RC16 labelled with Cell-Vue Maroon (dye:RC16, 1:100 mol:mole) at a dose of 1 mg/kg. […] The mice were then humanely euthanized by CO2 asphyxiation. Organs were removed, weighed and used for quantitative optical imaging by the IVIS system.

Series [13] concerns Neuro 2A. The experiment in a line: In vivo efficacy, metastatic model of murine neuroblastoma. Set-up: species or system mouse. The method, then: An efficacy study was performed on an immunocompetent model of neuroblastoma. In this experiment A/J mice were i.v. injected with Neuro 2A (0.2 × 10^6 cells in 100 μL of PBS). After 5 days, the mice were randomized (six animals per group) and treated once with RC16 injected through the tail vein at doses of 20 μg or 40 μg/mouse or vehicle (PBS). After treatment animals were monitored for survival and endpoint criteria.
Endpoint criteria included tumor volume > 2000 mm3, body weight loss ≥ 20%, unusual mouse behavior, lack of movement and poor posture. Tumor size was measured using digital calipers on alternate days and tumor volume was calculated using the following formula: a x b^2 π/6 where a is the longest diameter and b is the shortest diameter. Mice were also weighed and observed 3 times per week for signs of endpoint condition.

For `CCCCCCCCCCCCCCC1CN2CCCN3CCCCCC132` (stereo not shown) [RC16, 2-tetradecyl-4,8-diazatricyclo[6.5.0.0^1,^4]tridecane], the IC50 was determined as 500 nM in series [1] (24 h); 320 nM in series [1] (48 h); 880 nM in series [2] (24 h); 670 nM in series [2] (48 h); 1110 nM in [3] (24 h); 760 nM in [3] (48 h). Further, the IC50 in series [4] (24 h) is 250 nM; in series [4] (48 h) it was 150 nM; in series [5] (24 h), 6620 nM; in series [5] (48 h), 5580 nM; in series [6] (24 h) it was 11800 nM; in series [6] (48 h), 10500 nM. For the same compound, the IC50 is 10600 nM in series [7] (24 h), 9650 nM in series [7] (48 h) and 1000 to 10000 nM in [9]. Moreover, the “Cell killing (qualitative)” value in series [8] is recorded as “most active”. Besides, the “IC50 for normal cells relative to tumor cells” value in series [10] is reported as “more than tenfold higher”. Moreover, the “Apoptosis (sum of LR and UR quadrants)” value in series [11] is listed as “approximately 100%”. The “Organ fluorescence intensity (biodistribution)” value in series [12] (1 mg/kg i.v., 12, 24 and 48 h) is “stomach, intestine and liver showed the highest fluorescence intensity”. Further, the “RC16 level in tumors over time” value in series [12] (1 mg/kg i.v., CHLA-20 tumors) is listed as “remained constant over time”. The “Mean survival time versus controls” value in series [13] (A/J mice, single i.v. dose 20 μg or 40 μg/mouse) is on record as “significant increase in the mean survival time”. In addition, the “Treated mice healthy and alive, no macroscopic disease at necropsy” value in series [13] (end of experiment (90 days), 20 μg or 40 μg/mouse i.v.) is 3 of the 12.
